Reference: US4784992A, “Phosphorylalkanolamide derivatives of L-carnitine and pharmaceutical compositions containing same” (Sigma-Tau Industrie Farmaceutiche Riunite S.p.A., priority 1986, dated 1988)

Columns and labels:
[1] = tested on: erucic acid-induced myocardial steatosis; assay: erucic acid-induced myocardial steatosis model in the rat (erucic acid-rich rape oil diet); type: in vivo, rat (male Wistar); conditions: for Cholesterol / ATP: n=6; for Cholesterol: controls 32.7 ±11.95; for ATP: controls 34.2 ±8.73
Description: (§1) A myocardial steatosis model, in which an L-carnitine positive effect was already described, was used in the rat. The steatosis was induced by adding, for five (5) consecutive days, erucic acid-rich rape oil in the rats' normal daily diet, according to the method described by Branca et al. (Internat., Vit. Nutr. Res., 47, 162-166, 1977). Trial-groups of six (6) male Wistar rats, weighing from 190 g to 220 g, were used.
These effects were statistically significant with Student's t test.

normal mouse's behaviour = assay: Irwin's test in the mouse (normal mouse's behaviour); type: in vivo; conditions: 1000 mg/kg e.p.; 4 M + 4 F
Procedure: (§2) The effects of L-carnitine phosphorylethanolamide to Irwin's test in the mouse and acute toxicity after endoperitoneal administration of the substance, always in the mouse, were also evaluated.

[2] = acute toxicity in the mouse (mortality curve and LD50); type: in vivo; conditions: in vivo, ip; mouse, e.p.; 7 days observation
Procedure: as §2

mouse = assay: as above; type: in vivo; conditions: 4 M + 4 F, 7 days observation
Procedure: as §2

[3] = solubility and appearance of the inner salt; type: physicochemical
Description: A 20% aqueous solution of the calcium salt of L-carnitine phosphorylethanolamide was passed through AMBERLITE IR 120 activated with a 10% solution of hydrochloric acid. The eluate was neutralized with AMBERLITE IR 45 resin. The solution was then concentrated to dryness under vacuum. A white product crystallized which was taken up with warm ethanol.

lipid metabolism = assay: restoring to normal any imbalance in the lipid metabolism / summary of the pharmacological trials; type: in vivo
Description: as §1
The model of erucic acid-induced myocardial steatosis is used to compare the effect of the 14 day-administration of 250 and 125 mg/kg e.p. of L-carnitine with that of L-carnitine phosphorylethanolamide at the same doses for the same study period.
Moreover other tests were carried out using a model of olive-oil induced hyperlipemia in the rat. L-carnitine was administered at 250 and 125 mg/kg endoperitoneally for 14 days, as was L-carnitine phosphorylethanolamide at 250 and 125 mg/kg endoperitoneally for 14 days. The following parameters were evaluated:
Moreover it is efficacious in re-establishing the balance between fatty acids' oxidation and uptake, and in stimulating acetyl-CoA's oxidation in Kreb's cycle. Important to underline is that to these actions, another, of a more ubiquitary nature, must be added. […]

[4] = 250 mg/kg endoperitoneally, 5 days, statistically significant (Student's t test)
[5] = Table 1, 250 mg/kg e.p., 5 days, P < 0.001

With `C[N+](C)(C)CC(O)CC(=O)NCCOP(=O)([O-])O` [L-carnitine phosphorylethanolamide] the ATP values [1, 4] was “brought back to normal the ATP values”, the “accumulation of triglycerides in the myocardium” value [1, 4] was “reduced the accumulation of triglycerides in the myocardium” and the cholesterol levels [1, 4] was “lowered the cholesterol levels”. For the same molecule, the “ATP, change vs controls” value [1, 5] was “+76.9%”, the “Triglycerides, change vs controls” value [1, 5] was -47.9% and the “Cholesterol, change vs controls” value ([1]; Table 1, 250 mg/kg e.p., 5 days, P < 0.01) was -60.9%. The Cholesterol ([1]; Table 1, 250 mg/kg e.p., 5 days, spread of treated group ±7.16 on next line, P < 0.01) was 12.8 mg/g of fresh tissue, the ATP ([1]; Table 1, 250 mg/kg e.p., 5 days, spread of treated group ±5.78 on next line, P < 0.001) was 60.5 nM/g proteines and the Main effects observed (normal mouse's behaviour) was “apparently normal”. The LD50 at 168 h [2] was over 8000 mg/kg, the “N° of dead animals” value (mouse; 1000 mg/kg e.p.) was 0 and the “N° of dead animals” value (mouse; 2000 mg/kg e.p.) was 0. For the same molecule, the “N° of dead animals” value (mouse; 4000 mg/kg e.p.) was 0, the “N° of dead animals” value (mouse; 8000 mg/kg e.p.) was 0 and the “solubility in most of the common organic solvents” value ([3]; common organic solvents) was “insoluble in most of the common organic solvents”. The solubility ([3]; water and methanol at room temperature, warm ethanol) was “Soluble in water and methanol at room temperature and in warm ethanol”, the hygroscopicity ([3]; white, amorphous powder, inner salt) was “hygroscopic” and the “normalization of myocardial hypertriglyceridemia and hyperlipemia, induced by erucic acid treatment” value (lipid metabolism) was “extremely active”. The “re-establishing the balance between fatty acids' oxidation and uptake, and stimulating acetyl-CoA's oxidation in Kreb's cycle” value (lipid metabolism) was “efficacious”.
For `C[N+](C)(C)C[C@H](O)CC(=O)[O-]` [L-carnitine], the “Triglycerides, change vs controls” value ([1]; Table 2, 250 mg/kg endoperitoneally for 5 days, P < 0.001) was -60.1%, the “Cholesterol, change vs controls” value ([1]; Table 2, 250 mg/kg endoperitoneally for 5 days, n.s.) was -34.5% and the Cholesterol ([1]; Table 2, 250 mg/kg endoperitoneally for 5 days, spread of treated group ±7.01 on next line, n.s.) was 24.7 mg/g of fresh tissue. The ATP ([1]; Table 2, 250 mg/kg endoperitoneally for 5 days, spread of treated group ±20.28 on next line, P < 0.05) was 57.3 nM/g proteines.
